In brackets after ≈: the same amount, converted by molar mass. Where two headings read alike, the source gives them in different places.
Experiments:
Type in all cases: cell-based
[1] = test system: Staphylococcus aureus ATCC 6538P; experiment: In vitro antibacterial activity, agar dilution MIC; settings: ATCC6538P
Experimental: (§1) The antimicrobial spectra of a number of compounds of the invention were tested by the following method:
(§2) Twelve petri dishes containing successive aqueous dilutions of the test compound mixed with 10 ml of sterilized Brain Heart Infusion agar (Difco 0418-01-5) are prepared. Each plate is inoculated with 1:100 (or 1:10 for slow growing strains, primarily Micrococcus and Streptococcus) dilutions of up to 32 different microorganisms, using a Steers replicator block The inoculated plates are incubated at 35°-37° C. for 20-24 hours. In addition, a control plate, using BHI agar containing no test compound, is prepared and incubated at the beginning and end of each test.
(§3) An additional plate containing a compound having known susceptibility patterns for the organisms being tested and belonging to the same antibiotic class as the test compound is also prepared and incubated as a further control, as well as to provide test-to-test comparability. Erythromycin A was used for this purpose.
(§4) After incubation, each disk is read. The MIC is defined as the lowest concentration of drug yielding no growth, a slight haze, or sparsely isolated colonies on the inoculum spot as compared to the growth control.

Staphylococcus aureus 45 = experiment: In vitro antibacterial activity, agar dilution MIC
Experimental: as §1, §2, §3, §4

[2] = test system: Micrococcus luteus ATCC 9341; experiment: In vitro antibacterial activity, agar dilution MIC
Experimental: as §1, §2, §3, §4

[3] = test system: Streptococcus bovis A5169; experiment: In vitro antibacterial activity, agar dilution MIC
Experimental: as §1, §2, §3, §4

[4] = test system: Staphylococcus aureus CMX 553; experiment: In vitro antibacterial activity, agar dilution MIC
Experimental: as §1, §2, §3, §4

Escherichia coli DC-2 = experiment: In vitro antibacterial activity, agar dilution MIC
Experimental: as §1, §2, §3, §4

[5] = test system: Micrococcus luteus ATCC 4698; experiment: In vitro antibacterial activity, agar dilution MIC
Experimental: as §1, §2, §3, §4

Escherichia coli H560 = experiment: In vitro antibacterial activity, agar dilution MIC
Experimental: as §1, §2, §3, §4

Escherichia coli SS = experiment: In vitro antibacterial activity, agar dilution MIC
Experimental: as §1, §2, §3, §4

[6] = test system: Streptococcus pyogenes EES61; experiment: In vitro antibacterial activity, agar dilution MIC
Experimental: as §1, §2, §3, §4

[7] = test system: Staphylococcus aureus NCTC 10649; experiment: In vitro antibacterial activity, agar dilution MIC
Experimental: as §1, §2, §3, §4

[8] = test system: Staphylococcus aureus 642A; experiment: In vitro antibacterial activity, agar dilution MIC
Experimental: as §1, §2, §3, §4

[9] = test system: Enterococcus faecium ATCC 8043; experiment: In vitro antibacterial activity, agar dilution MIC
Experimental: as §1, §2, §3, §4

[10] = test system: Staphylococcus aureus A5177; experiment: In vitro antibacterial activity, agar dilution MIC
Experimental: as §1, §2, §3, §4

Escherichia coli Juhl = experiment: In vitro antibacterial activity, agar dilution MIC
Experimental: as §1, §2, §3, §4

[11] = test system: Staphylococcus epidermidis 3519; experiment: In vitro antibacterial activity, agar dilution MIC
Experimental: as §1, §2, §3, §4

[12] = test system: Streptococcus agalactiae CMX 508; experiment: In vitro antibacterial activity, agar dilution MIC
Experimental: as §1, §2, §3, §4

[13] = test system: Streptococcus pyogenes 930 CONST; experiment: In vitro antibacterial activity, agar dilution MIC; settings: 930CONST
Experimental: as §1, §2, §3, §4

[14] = test system: Staphylococcus aureus 45 RAR 2; experiment: microbe, parasite or virus in culture; settings: 45RAR2
Experimental: as §1, §2, §3, §4

[15] = test system: Streptococcus pyogenes 2548 INDUC; experiment: In vitro antibacterial activity, agar dilution MIC
Experimental: as §1, §2, §3, §4

[16] = ATCC9341, M. luteus ATCC 9341, Brain Heart Infusion agar, 20-24 hours, read-out: MIC
[17] = CMX553, S. aureus CMX 553, Brain Heart Infusion agar, 20-24 hours, read-out: MIC
[18] = S. pyogenes EES61, Brain Heart Infusion agar, 20-24 hours, read-out: MIC
[19] = NCTC10649, S. aureus NCTC 10649, Brain Heart Infusion agar, 20-24 hours, read-out: MIC
[20] = S. aureus 642A, Brain Heart Infusion agar, 20-24 hours, read-out: MIC
[21] = S. aureus A5177, Brain Heart Infusion agar, 20-24 hours, read-out: MIC
[22] = S. epidermidis 3519, Brain Heart Infusion agar, 20-24 hours, read-out: MIC
[23] = CMX508, S. agalactiae CMX 508, Brain Heart Infusion agar, 20-24 hours, read-out: MIC
[24] = S. aureus ATCC 6538P, Brain Heart Infusion agar, 35-37° C., 20-24 hours, read-out: MIC
[25] = S. bovis A5169, Brain Heart Infusion agar, 20-24 hours, read-out: MIC
[26] = E. coli H560, Brain Heart Infusion agar, 20-24 hours, read-out: MIC
[27] = S. pyogenes 2548 INDUC, Brain Heart Infusion agar, 20-24 hours, read-out: MIC

SMILES | MIC [1] [µg/mL] | MIC (Staphylococcus aureus 45; 45) [µg/mL] | MIC [2, 16] [µg/mL] | MIC [4, 17] [µg/mL] | MIC (Escherichia coli DC-2; DC2) [µg/mL] | MIC ([5]; ATCC4698) [µg/mL] | MIC (Escherichia coli H560; H560) [µg/mL] | MIC (Escherichia coli SS; read-out: MIC) [µg/mL] | MIC [6, 18] [µg/mL] | MIC [7, 19] [µg/mL] | MIC [8, 20] [µg/mL] | MIC ([9]; ATCC8043) [µg/mL] | MIC [10, 21] [µg/mL] | MIC (Escherichia coli Juhl) [µg/mL] | MIC [11, 22] [µg/mL] | MIC [12, 23] [µg/mL] | MIC [13] [µg/mL] | MIC [14] [µg/mL] | MIC [1, 24] [µg/mL] | MIC [3, 25] [µg/mL] | further results
CC[C@H]1OC(=O)[C@H](C)[C@@H](O[C@H]2C[C@@](C)(OC)[C@@H](O)[C@H](C)O2)[C@H](C)[C@@H](O[C@@H]2O[C@H](C)C[C@H](N(C)C)[C@H]2O)[C@](C)(O)C[C@@H](C)[C@@H](N2CCCC(C)(C)C2)[C@H](C)[C@@H](O)[C@]1(C)O [Example 1] | 0.39 (≈ 0.469 µM) | 0.39 (≈ 0.469 µM) | 0.05 (≈ 0.0602 µM) | 0.78 (≈ 0.938 µM) | 50 (≈ 60.2 µM) | 0.1 (≈ 0.12 µM) | 6.2 (≈ 7.46 µM) | 0.2 (≈ 0.241 µM) | 0.1 (≈ 0.12 µM) | 0.78 (≈ 0.938 µM) | 0.78 (≈ 0.938 µM) | 0.1 (≈ 0.12 µM) | 6.2 (≈ 7.46 µM) | 25 (≈ 30.1 µM) | 0.78 (≈ 0.938 µM) | 0.1 (≈ 0.12 µM) | > 100 | 0.78 (≈ 0.938 µM) | – | – | MIC ([3]; read-out: MIC): 0.02 µg/mL (≈ 0.0241 µM)
CC[C@H]1OC(=O)[C@H](C)[C@@H](O[C@H]2C[C@@](C)(OC)[C@@H](O)[C@H](C)O2)[C@H](C)[C@@H](O[C@@H]2O[C@H](C)C[C@H](N(C)C)[C@H]2O)[C@](C)(O)C[C@@H](C)[C@@H](N2CCS(=O)(=O)CC2)[C@H](C)[C@@H](O)[C@]1(C)O [Example 22] | – | – | 0.39 (≈ 0.457 µM) | 3.1 (≈ 3.63 µM) | – | – | – | – | 0.39 (≈ 0.457 µM) | 3.1 (≈ 3.63 µM) | 6.2 (≈ 7.27 µM) | – | > 100 | – | 6.2 (≈ 7.27 µM) | 0.39 (≈ 0.457 µM) | > 100 | 6.2 (≈ 7.27 µM) | 3.1 (≈ 3.63 µM) | 0.39 (≈ 0.457 µM) | MIC (Staphylococcus aureus 45; S. aureus 45, Brain Heart Infusion agar, 20-24 hours, read-out: MIC): 6.2 µg/mL (≈ 7.27 µM); MIC (Escherichia coli DC-2; DC2, E. coli DC-2, Brain Heart Infusion agar, 20-24 hours, read-out: MIC): > 100 µg/mL; MIC ([5]; ATCC4698, M. luteus ATCC 4698, Brain Heart Infusion agar, 20-24 hours, read-out: MIC): 3.1 µg/mL (≈ 3.63 µM); MIC (Escherichia coli H560; [26]): > 100 µg/mL; MIC (Escherichia coli SS; E. coli SS, Brain Heart Infusion agar, 20-24 hours, read-out: MIC): 1.56 µg/mL (≈ 1.83 µM); MIC ([9]; ATCC8043, E. faecium ATCC 8043, Brain Heart Infusion agar, 20-24 hours, read-out: MIC): 1.56 µg/mL (≈ 1.83 µM); MIC (Escherichia coli Juhl; E. coli Juhl, Brain Heart Infusion agar, 20-24 hours, read-out: MIC): > 100 µg/mL; MIC [15, 27]: 100 µg/mL (≈ 117 µM)
CC[C@H]1OC(=O)[C@H](C)[C@@H](O[C@H]2C[C@@](C)(OC)[C@@H](O)[C@H](C)O2)[C@H](C)[C@@H](O[C@@H]2O[C@H](C)C[C@H](N(C)C)[C@H]2O)[C@](C)(O)C[C@@H](C)[C@@H](N2CC2)[C@H](C)[C@@H](O)[C@]1(C)O [Example 4] | 1.56 (≈ 2.05 µM) | 0.78 (≈ 1.02 µM) | – | – | 100 (≈ 131 µM) | 0.78 (≈ 1.02 µM) | 25 (≈ 32.9 µM) | – | – | – | – | 0.2 (≈ 0.263 µM) | – | > 100 | – | – | > 100 | 1.56 (≈ 2.05 µM) | – | – | MIC ([2]; ATCC9341): 0.1 µg/mL (≈ 0.131 µM); MIC [3]: 0.1 µg/mL (≈ 0.131 µM); MIC ([4]; CMX553): 1.56 µg/mL (≈ 2.05 µM); MIC (Escherichia coli SS): 0.78 µg/mL (≈ 1.02 µM); MIC ([6]; EES61): 0.2 µg/mL (≈ 0.263 µM); MIC ([7]; NCTC10649): 1.56 µg/mL (≈ 2.05 µM); MIC ([8]; 642A): 1.56 µg/mL (≈ 2.05 µM); MIC ([10]; A5177): 6.2 µg/mL (≈ 8.15 µM); MIC ([15]; 2548INDUC): 12.5 µg/mL (≈ 16.4 µM); MIC [11]; 3519: 1.56 µg/mL (≈ 2.05 µM); MIC ([12]; CMX508): 0.2 µg/mL (≈ 0.263 µM)
CC[C@H]1OC(=O)[C@H](C)[C@@H](O[C@H]2C[C@@](C)(OC)[C@@H](N)[C@H](C)O2)[C@H](C)[C@@H](O[C@@H]2O[C@H](C)C[C@H](N(C)C)[C@H]2O)[C@](C)(O)C[C@@H](C)[C@@H](N2CCOCC2)[C@H](C)[C@@H](O)[C@]1(C)O [Example 33] | – | 0.39 (≈ 0.485 µM) | 0.05 (≈ 0.0622 µM) | 0.78 (≈ 0.97 µM) | 6.2 (≈ 7.71 µM) | 0.39 (≈ 0.485 µM) | – | 0.2 (≈ 0.249 µM) | 0.1 (≈ 0.124 µM) | 0.78 (≈ 0.97 µM) | 0.78 (≈ 0.97 µM) | – | 6.2 (≈ 7.71 µM) | 12.5 (≈ 15.5 µM) | 0.78 (≈ 0.97 µM) | 0.1 (≈ 0.124 µM) | > 100 | 0.78 (≈ 0.97 µM) | 0.78 (≈ 0.97 µM) | 0.05 (≈ 0.0622 µM) | MIC (Escherichia coli H560; [26]): 3.1 µg/mL (≈ 3.86 µM); MIC ([9]; ATCC8043, read-out: MIC): 0.2 µg/mL (≈ 0.249 µM); MIC [15, 27]: 50 µg/mL (≈ 62.2 µM)

— US5075289A, “9-R-azacyclic erythromycin antibiotics” (priority 1988, dated 1991)
